Measured values from patent US9499538B2, “Estrogen receptor modulators and uses thereof” (Seragon Pharmaceuticals, Inc., priority 2012, dated 2016).

Key:
MCF-7 cells = test: Breast Cancer Cell Viability Assays (MCF-7, CellTiter-Glo); format: cell-based; details: 5 days' compound exposure; for IC50: Homo sapiens, MCF7, 120 h
Method in brief: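 Percent viability, background-subtracted against untreated wells, was taken from CellTiter-Glo luminescence after 5 days' exposure of MCF-7 cells. Compounds were tested at eleven semilog concentrations, final 0.3–0.000003 μM, in RPMI containing 10% FBS.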

ER-α in MCF-7 cells = molecular target: T1, ER-α in MCF-7 cells (Homo sapiens, UniProt P03372); test: Breast Cancer Cell ER-α In Cell Western Assay (SP1); format: cell-based; details: 4 or 24 hr post compound addition; for Emax: MCF7, SP1 antibody, read-out: ER-α In Cell Western Assay (SP1) Max Response; for DC50: SP1 antibody, read-out: ER-α In Cell Western Assay (SP1) IC50
T1 construct: endogenous in cells; host or cells: MCF-7
T1 sequence (P03372 1-595): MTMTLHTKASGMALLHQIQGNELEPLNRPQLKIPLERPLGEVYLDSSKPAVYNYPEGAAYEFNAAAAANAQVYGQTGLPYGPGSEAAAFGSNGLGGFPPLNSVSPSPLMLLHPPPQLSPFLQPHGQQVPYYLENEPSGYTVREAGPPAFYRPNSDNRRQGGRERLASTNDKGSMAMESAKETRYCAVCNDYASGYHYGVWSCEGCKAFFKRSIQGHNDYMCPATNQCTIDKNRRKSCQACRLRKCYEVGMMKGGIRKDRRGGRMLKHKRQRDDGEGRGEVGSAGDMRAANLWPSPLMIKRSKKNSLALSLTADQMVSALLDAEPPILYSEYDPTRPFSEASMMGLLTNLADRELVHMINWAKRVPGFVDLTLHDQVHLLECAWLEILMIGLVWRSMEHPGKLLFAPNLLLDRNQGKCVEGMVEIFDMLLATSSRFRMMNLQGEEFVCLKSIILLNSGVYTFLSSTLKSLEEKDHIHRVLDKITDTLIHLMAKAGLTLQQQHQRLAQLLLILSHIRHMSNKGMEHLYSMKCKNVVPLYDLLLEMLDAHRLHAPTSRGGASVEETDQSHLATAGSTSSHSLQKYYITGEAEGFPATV
Method in brief: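 ER-α levels quantified by in-cell western: SP1 signal normalised to DRAQ5 DNA stain, relative to untreated cells (% ER). Compounds at 0.3–0.000003 μM final, 11-point semilog series, 4 or 24 h exposure of MCF-7 cells grown in charcoal-stripped serum.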

SMILES | IC50 (MCF-7 cells) [nM] | Emax (ER-α in MCF-7 cells) [%] | DC50 (ER-α in MCF-7 cells) [nM] | MCF7 Viability Assay Max Response (MCF-7 cells)
O=C(/C=C/c1ccc(/C(=C(\c2ccccc2)C2CCC2)c2ccc3[nH]nc(F)c3c2)cc1)NCCCl [Example 191, (E)-N-(2-Chloroethyl)-3-(4-((E)-2-cyclobutyl-1-(3-fluoro-1H-indazol-5-yl)-2-phenylvinyl)phenyl)acrylamide] | ≤ 100 | ≥ 40 | ≤ 100 | ++ (++ = a single % value ≧ 40%)
CC/C(=C(/c1ccc(/C=C/C(=O)O)cc1)c1ccc2nn(CCO)cc2c1)c1ccc(F)cc1Cl [Example 200, (E)-3-(4-((E)-2-(2-Chloro-4-fluorophenyl)-1-(2-(2-hydroxyethyl)-2H-indazol-5-yl)but-1-en-1-yl)phenyl)acrylic acid] | > 100 | ≥ 40 | ≤ 100 | ++ (++ = a single % value ≧ 40%)
O=C(O)/C=C/c1ccc(/C(=C(\c2ccccc2)C2CCC2)c2ccc3c(c2)c(F)nn3CCO)cc1 [Example 201, (E)-3-(4-((E)-2-Cyclobutyl-1-(3-fluoro-1-(2-hydroxyethyl)-1H-indazol-5-yl)-2-phenylvinyl)phenyl)acrylic acid] | > 100 | ≥ 40 | ≤ 100 | ++ (++ = a single % value ≧ 40%)
Fc1n[nH]c2ccc(/C(=C(/c3ccccc3)C3CCC3)c3ccc(/C=C/c4cccnc4)cc3)cc12 [Example 205, 5-((E)-2-Cyclobutyl-2-phenyl-1-(4-((E)-2-(pyridin-3-yl)vinyl)phenyl)vinyl)-3-fluoro-1H-indazole] | > 100 | ≥ 40 | ≤ 100 | + (+ = a single % value < 40%)
Fc1n[nH]c2ccc(/C(=C(/c3ccccc3)C3CCC3)c3ccc(/C=C/c4ccn[nH]4)cc3)cc12 [Example 207, 5-((E)-1-(4-((E)-2-(1H-Pyrazol-5-yl)vinyl)phenyl)-2-cyclobutyl-2-phenylvinyl)-3-fluoro-1H-indazole] | > 100 | ≥ 40 | ≤ 100 | + (+ = a single % value < 40%)
Fc1n[nH]c2ccc(/C(=C(/c3ccccc3)C3CCC3)c3ccc(/C=C/c4ncon4)cc3)cc12 [Example 209, 3-((E)-4-((E)-2-Cyclobutyl-1-(3-fluoro-1H-indazol-5-yl)-2-phenylvinyl)styryl)-1,2,4-oxadiazole] | ≤ 100 | ≥ 40 | ≤ 100 | + (+ = a single % value < 40%)
N=C(N)/C=C/c1ccc(/C(=C(\c2ccccc2)C2CCC2)c2ccc3[nH]nc(F)c3c2)cc1 [Example 210] | ≤ 100 | ≥ 40 | ≤ 100 | ++ (++ = a single % value ≧ 40%)
CC/C(=C(/c1ccc(/C=C/C(=O)O)cc1)c1ccc2[nH]ncc2c1)c1ccc(C(N)=O)cc1F [Example 211, (E)-3-(4-((E)-2-(4-Carbamoyl-2-fluorophenyl)-1-(1H-indazol-5-yl)but-1-en-1-yl)phenyl)acrylic acid] | > 100 | ≥ 40 | > 100 | + (+ = a single % value < 40%)
O=C(O)/C=C/c1ccc(/C(=C(\c2ccc(F)cc2Cl)C2CCC2)c2coc3c(O)cccc23)cc1 [Example 212, (E)-3-(4-((E)-2-(2-Chloro-4-fluorophenyl)-2-cyclobutyl-1-(7-hydroxybenzofuran-3-yl)vinyl)phenyl)acrylic acid] | ≤ 100 | ≥ 40 | ≤ 100 | ++ (++ = a single % value ≧ 40%)

More lines, main results first:

IC50 (MCF-7 cells) [nM] | Emax (ER-α in MCF-7 cells) [%] | DC50 (ER-α in MCF-7 cells) [nM] | SMILES | MCF7 Viability Assay Max Response (MCF-7 cells)
≤ 100 | ≥ 40 | ≤ 100 | OCC1CN=C(/C=C/c2ccc(/C(=C(\c3ccccc3)C3CCC3)c3ccc4[nH]nc(F)c4c3)cc2)O1 (stereo not drawn) [Example 192, (2-((E)-4-((E)-2-Cyclobutyl-1-(3-fluoro-1H-indazol-5-yl)-2-phenylvinyl)styryl)-4,5-dihydrooxazol-5-yl)methanol] | ++ (++ = a single % value ≧ 40%)
≤ 100 | ≥ 40 | ≤ 100 | CS(=O)(=O)c1ccccc1/C(=C(\c1ccc(/C=C/C(=O)O)cc1)c1ccc2[nH]nc(F)c2c1)C1CC1 [Example 193, (E)-3-(4-((E)-2-Cyclopropyl-1-(3-fluoro-1H-indazol-5-yl)-2-(2-(methylsulfonyl)phenyl)vinyl)phenyl)acrylic acid] | ++ (++ = a single % value ≧ 40%)
≤ 100 | ≥ 40 | ≤ 100 | CS(=O)(=O)c1ccccc1/C(=C(\c1ccc(/C=C/C(=O)O)cc1)c1ccc2[nH]nc(F)c2c1)C1CCC1 [Example 194, (E)-3-(4-((E)-2-Cyclobutyl-1-(3-fluoro-1H-indazol-5-yl)-2-(2-(methylsulfonyl)phenyl)vinyl)phenyl)acrylic acid] | ++ (++ = a single % value ≧ 40%)
≤ 100 | ≥ 40 | ≤ 100 | Cc1cc(S(C)(=O)=O)ccc1/C(=C(\c1ccc(/C=C/C(=O)O)cc1)c1ccc2[nH]nc(F)c2c1)C1CCC1 [Example 195, (E)-3-(4-((E)-2-Cyclobutyl-1-(3-fluoro-1H-indazol-5-yl)-2-(2-methyl-4-(methylsulfonyl)phenyl)vinyl)phenyl)acrylic acid] | ++ (++ = a single % value ≧ 40%)
≤ 100 | ≥ 40 | ≤ 100 | CS(=O)(=O)c1ccc(/C(=C(\c2ccc(/C=C/C(=O)O)cc2)c2ccc3[nH]nc(F)c3c2)C2CCC2)c(Cl)c1 [Example 196, (E)-3-(4-((E)-2-(2-Chloro-4-(methylsulfonyl)phenyl)-2-cyclobutyl-1-(3-fluoro-1H-indazol-5-yl)vinyl)phenyl)acrylic acid] | ++ (++ = a single % value ≧ 40%)
≤ 100 | ≥ 40 | ≤ 100 | CS(=O)(=O)c1ccccc1/C(=C(\c1ccc(/C=C/C(=O)O)cc1)c1ccc2scnc2c1)C1CCC1 [Example 197, (E)-3-(4-((E)-1-(Benzo[d]thiazol-5-yl)-2-cyclobutyl-2-(2-(methylsulfonyl)phenyl)vinyl)phenyl)acrylic acid] | ++ (++ = a single % value ≧ 40%)
≤ 100 | ≥ 40 | ≤ 100 | Cc1cc([S+](C)[O-])ccc1/C(=C(\c1ccc(/C=C/C(=O)O)cc1)c1ccc2[nH]nc(F)c2c1)C1CCC1 (stereo not drawn) [Example 198] | ++ (++ = a single % value ≧ 40%)
≤ 100 | ≥ 40 | ≤ 100 | CC/C(=C(/c1ccc(/C=C/C(=O)O)cc1)c1ccc2c(cnn2CCO)c1)c1ccc(F)cc1Cl [Example 199, (E)-3-(4-((E)-2-(2-Chloro-4-fluorophenyl)-1-(1-(2-hydroxyethyl)-1H-indazol-5-yl)but-1-en-1-yl)phenyl)acrylic acid] | ++ (++ = a single % value ≧ 40%)
≤ 100 | ≥ 40 | ≤ 100 | O=c1[nH]c(/C=C/c2ccc(/C(=C(\c3ccccc3)C3CCC3)c3ccc4[nH]nc(F)c4c3)cc2)no1 [Example 202, 3-((E)-4-((E)-2-Cyclobutyl-1-(3-fluoro-1H-indazol-5-yl)-2-phenylvinyl)styryl)-1,2,4-oxadiazol-5(4H)-one] | ++ (++ = a single % value ≧ 40%)
≤ 100 | ≥ 40 | ≤ 100 | NNC(=O)/C=C/c1ccc(/C(=C(\c2ccccc2)C2CCC2)c2ccc3[nH]nc(F)c3c2)cc1 [Example 203, (E)-3-(4-((E)-2-Cyclobutyl-1-(3-fluoro-1H-indazol-5-yl)-2-phenylvinyl)phenyl)acrylohydrazide] | ++ (++ = a single % value ≧ 40%)
≤ 100 | ≥ 40 | ≤ 100 | Fc1n[nH]c2ccc(/C(=C(/c3ccccc3)C3CCC3)c3ccc(/C=C/c4cn[nH]c4)cc3)cc12 [Example 206, 5-((E)-1-(4-((E)-2-(1H-Pyrazol-4-yl)vinyl)phenyl)-2-cyclobutyl-2-phenylvinyl)-3-fluoro-1H-indazole] | + (+ = a single % value < 40%)
≤ 100 | ≥ 40 | ≤ 100 | Fc1n[nH]c2ccc(/C(=C(/c3ccccc3)C3CCC3)c3ccc(/C=C/c4nnco4)cc3)cc12 [Example 208, 2-((E)-4-((E)-2-Cyclobutyl-1-(3-fluoro-1H-indazol-5-yl)-2-phenylvinyl)styryl)-1,3,4-oxadiazole] | ++ (++ = a single % value ≧ 40%)
